Entries after “also recorded” stand apart in the source; their conditions may differ.
Key:
PitNET organoids [1] = assay: ACTH secretion from PitNET (summary); assay type: cell-based, human
Experimental: Sonic Hedgehog (SHH) was withdrawn from the organoid growth media 16 hours prior to treatment. The experimental treatment groups included: vehicle (Veh), mifepristone (500 nM, Selleckchem S2606), GANT61 (5 μM, Stemcell Technologies 73692), ketoconazole (Keto, 10 μM, Selleckchem S1353), pasireotide (Pas, 100 nM, Target Mol TP2207-SB001), octreotide (Oct, 100 nM, Selleckchem P1017), mifepristone plus GANT61, mifepristone plus Keto, mifepristone plus Pas, relacorilant (500 nM, Corcept Therapeutics CORT125134), relacorilant plus Pas, relacorilant plus Oct, or dexamethasone (Dexa, 100 nM, SIGMA S4902). In the combination treatments, cultures were pretreated with the GANT61, Keto, Pas or Oct for 2 hours prior to treatment with mifepristone or Rela. […] The IC50 values used for each hPITO line for each drug were determined based on dose responses (FIG. 12). […]
Organoid conditioned media was collected and ACTH secretion using an ELISA according to the manufacturer's protocol (Novus Biologicals Human ACTH ELISA Kit NBP2-66401). The optical density was measured at a wavelength of 450 nm, and ACTH concentration (pg/mL) was interpolated using a standard curve with a 4-parameter logistic regression analysis using GraphPad Prism (v9.3.1).

PitNET organoids [2] = assay: PitNET organoid proliferation, apoptosis and cell death (summary); assay type: cell-based, human; conditions: for tumor cell apoptosis / cell death: PitNET organoids
Experimental: iPSCs were stained for pituitary specific hormones including luteinizing hormone (LH), follicle-stimulating hormone (FSH), growth hormone (GH), prolactin (PRL), ACTH, cytokeratin 8/18 (CAM5.2), pituitary transcription factor PIT-1 and neuroendocrine marker Synaptophysin (Table 5). Cultures were immunostained for proliferation marker EdU (Click-IT EdU Alexa Fluor 555 Imaging Kit, Thermo Fisher Scientific C10338). Antibody dilutions were determined based on manufacturer guidelines and antibody titration (Table 5). Staining was conducted according to previously published protocols. Briefly, organoids and iPSCs grown in 8-well glass bottom chamber slides were fixed using 3.7% formaldehyde, washed with DPBS, permeabilized with 0.5% Triton X-100 (SIGMA X-100, PBS-T, 20 min at room temperature), washed with 0.01% PBS-T, and blocked with 2% donkey serum (Jackson Immuno Research 017-000-121) for 1 hour at room temperature. After blocking, primary antibodies were added and incubated overnight at 4° C. […] Fluorescence intensity was quantified as the percentage of marker-positive cells versus total cells, using Nikon Elements Software (Version 5.21.05). Proliferation for each iPSC line was quantified as the percentage of EdU-positive cells versus total cells.
Nuclear Morphometric Analysis (NMA) using treated organoids was performed based on a published protocol that measures cell viability based on the changes in nuclear morphology of the cells using nuclear stain Hoechst or DAPI [31]. Images of organoid nuclei were analyzed using the ImageJ Nuclear Irregularity Index (NII) plugin for key parameters that included cell area, radius ratio, area box, aspect, and roundness. Using the published spreadsheet template, the NII of each cell was calculated with the following formula: NII=Aspect−Area Box+Radius Ratio+Roundness. […] The percentage of cells in each NII classification category were calculated and plotted as a histogram using GraphPad Prism. […]

[3] = system: patients with Cushing's syndrome; conditions: cited from earlier work; for tumor regression / tumor growth: CD patients, pituitary macroadenomas/corticotroph tumors; for ACTH levels in patients / cortisol levels in patients: patients with Cushing's syndrome/CD
iPSC^ctrl organoids = assay: Nuclear morphometric analysis (nuclear irregularity index), iPSCctrl organoids; assay type: cell-based, human; conditions: 500 nM, 48 h
Experimental: (§1) Nuclear Morphometric Analysis (NMA) using treated organoids was performed based on a published protocol that measures cell viability based on the changes in nuclear morphology of the cells using nuclear stain Hoechst or DAPI [31]. Images of organoid nuclei were analyzed using the ImageJ Nuclear Irregularity Index (NII) plugin for key parameters that included cell area, radius ratio, area box, aspect, and roundness. Using the published spreadsheet template, the NII of each cell was calculated with the following formula: NII=Aspect−Area Box+Radius Ratio+Roundness. The area vs NII of vehicle-treated cells were plotted as a scatter plot using the template and considered as the normal cell nuclei. […] The percentage of cells in each NII classification category were calculated and plotted as a histogram using GraphPad Prism.
(§2) Sonic Hedgehog (SHH) was withdrawn from the organoid growth media 16 hours prior to treatment. […] The IC50 values used for each hPITO line for each drug were determined based on dose responses (FIG. 12). […]

iPSC^USP48MV organoids = assay: Nuclear morphometric analysis (nuclear irregularity index), iPSCUSP48MV organoids; assay type: cell-based, human; conditions: 500 nM, 48 h
Experimental: as §1, §2

CC#C[C@]1(O)CC[C@H]2[C@@H]3CCC4=CC(=O)CCC4=C3[C@@H](c3ccc(N(C)C)cc3)C[C@@]21C [mifepristone, 11β-(4-dimethylaminophenyl)-17ß-hydroxy-17α-(1-propynyl)-estra-4,9-dien-3-one]
ACTH secretion from PitNET organoids (PitNET organoids [1]): preferentially induced the expression of SSTR2, ACTH secretion and PitNET organoid proliferation; also recorded: significantly increased ACTH secretion from PitNET both in vivo and in vitro
PitNET organoid proliferation (PitNET organoids [2]; compared to relacorilant): preferentially induced the expression of SSTR2, ACTH secretion and PitNET organoid proliferation
tumor regression / tumor growth [3]: not been observed; also recorded: without tumor growth
hyperglycemia secondary to hypercortisolism ([3]; patients with CD): significantly improves hyperglycemia
ACTH levels in patients [3]: increases ACTH; also recorded: raises ACTH (and thus cortisol) levels
cortisol levels in patients [3]: concomitant increase in cortisol secretion; also recorded: raises ACTH (and thus cortisol) levels
side effects ([3]; patients): significant side effects in some patients; also recorded: endometrial thickening and vaginal bleeding
apoptotic cells by nuclear irregularity index (NII) (iPSC^ctrl organoids): not observed; also recorded: induces apoptosis in neither the tumor organoid iPSC^USP48MV nor the control organoid iPSC^ctrl
apoptotic cells by nuclear irregularity index (NII) (iPSC^USP48MV organoids): not observed; also recorded: induces apoptosis in neither the tumor organoid iPSC^USP48MV nor the control organoid iPSC^ctrl

Cn1cc(S(=O)(=O)N2CCC3=Cc4c(cnn4-c4ccc(F)cc4)C[C@]3(C(=O)c3cc(C(F)(F)F)ccn3)C2)cn1 [relacorilant, (R)-(1-(4-fluorophenyl)-6-((1-methyl-1H-pyrazol-4-yl)sulfonyl)-4,4a,5,6,7,8-hexahydro-1H-pyrazolo[3,4-g]isoquinolin-4a-yl) (4-(trifluoromethyl)pyridin-2-yl) methanone]
ACTH secretion from PitNET organoids (PitNET organoids [1]): without significant stimulation of ACTH secretion; also recorded: without an increase in ACTH secretion
tumor cell apoptosis / cell death (PitNET organoids [2]): induced SSTR5 expression and PitNET organoid apoptosis; also recorded: induced PitNET cell death
tumor cell apoptosis / cell death (PitNET organoids [2]; listed as Relacorilant): induces SSTR5 and tumor cell apoptosis
tumor regression / tumor growth [3]: induce tumor regression in some CD patients
tumor regression ([3]; macroadenomas, treated for three months, imaging of the pituitary gland): tumor regression in two patients
ACTH levels in patients [3]: did not significantly raise ACTH or cortisol levels
cortisol levels in patients [3]: did not significantly raise ACTH or cortisol levels
effects of excess cortisol on hypertension and insulin resistance ([3]; phase 2 study, patients with Cushing's syndrome): reversed the effects of excess cortisol on hypertension and insulin resistance
apoptotic cells by nuclear irregularity index (NII) (iPSC^ctrl organoids): not observed
apoptotic cells by nuclear irregularity index (NII) (iPSC^USP48MV organoids): significant expression pattern of nuclear morphology consistent with increased apoptotic cells; also recorded: consistent with increased apoptosis cells

Source: patent US20260325504A1, “Genetically Engineered Human Pituitary Corticotroph Tumor Organoids Exhibit Divergent Responses to Selective Glucocorticoid Receptor Modulators” (Corcept Therapeutics Incorporated, priority 2022, published 2026)
